The values that follow come from patent US11771685B2, “Compounds for the treatment of neurological or mitochondrial diseases” (MUSC FOUNDATION FOR RESEARCH DEVELOPMENT, priority 2018, dated 2023).

Molecules are shown by their SMILES.

As a reminder, the EC50 is the concentration giving half of the maximal effect.

The test system of one data set is HT22 cells. Put plainly: HT22 oxytosis (glutamate-induced cell death) neuroprotection assay. It is filed as cell-based, mouse. To be noted: 10 mM Glu. As to the method:
The HT22 murine hippocampal cell system was chosen as an initial phenotypic screen for neuroprotective efficacy (Andreux et al., 2013; Andreux et al., 2014; Ohlow et al., 2017; Schubert and Maher, 2012). HT22 cells exposed to high extracellular Glu ([…]) undergo oxytosis, a non-apoptotic programmed cell death involving glutathione (GSH) depletion followed by ROS accumulation, oxidative damage, and a cytotoxic signaling cascade (Tan et al., 2001). Glu blocks the −xC cystine antiporter, causing (Tan et al., 2001) cells to accumulate severe oxidative stress, mitochondrial depolarization, disrupted mitochondrial morphology, and Ca^2+ influx (Tan et al., 2001; Yang et al., 2011; Cheng et al., 2013—cellular events that may occur in neurological diseases, including epilepsy. Thus, the immortalized HT22 cell line is a well-established model of neuronal oxidative stress (Sagara and Schubert, 1998; Matsumoto et al., 1996; Albrecht et al., 2010; Ha and Park, 2006; van Leyen et al., 2005; Tobaben et al., 2011), and a verified model of neurodegeneration to screen for potential neuroprotective drugs (Albrecht et al., 2010; van Leyen et al., 2008; Lewerenz et al., 2009; Lewerenz et al., 2003).
Consistent with that work, most of the 2-amino compounds achieved protection of HT22 cells against glutamate-induced oxytosis in the nM to μM range. […] Neuroprotection based on relative cell viability compared to +Glu and −Glu control cells was measured.
The HT22 neuronal cell line is a subclone of HT4, derived from the mouse hippocampus (Morimoto and Koshland, 1990). […] The HT22 cells used in this study were kindly provided by Dr. David Schubert (The Salk Institute for Biological Studies, La Jolla, CA, USA). The cells were grown in Dulbecco's Modified Eagle's Medium (DMEM/high glucose) supplemented with 10% fetal bovine serum (Hyclone) and 5 mL of antibiotic-antimycotic (Amphotericin B, Penicillin, and Streptomycin; Invitrogen) at 37° C. in 5% CO2.
HT-22 cells were seeded onto 96-well plates at 2.5×10^3 cells per well in 75 μL of medium and maintained at 37° C. in 5% CO2 overnight prior to the initiation of experimental treatments. For glutamate toxicity testing, cells were subsequently treated with 25 μL of medium containing glutamate (monosodium glutamate, Sigma, 1 M stock concentration in media, to achieve a final concentration of 10 mM) plus compound (stock in DMSO) and maintained at 37° C. in 5% CO2 for 24 hr. CellTiter-Blue® (resazurin cell viability assay reagent) was then added to each well at a final concentration of 0.125 mg/mL. The mixture was allowed to incubate for 2-4 hr until sufficient color change occurred. Cell viability was measured as a function of resorufin fluorescence intensity using a Tecan M200 Pro spectrophotometer, 560 nm/590 nm (excitation/emission). Cell viability was calculated as a percentage compared with untreated controls. EC50s were determined using GraphPad Prism's “log(inhibitor) vs. normalized response-Variable slope” function. Morphology of HT22 cells following treatments was determined by phase-contrast microscopy.
(§1) Statistical analyses were performed with GraphPad Prism 6 software. For the in vitro HT22 oxytosis assay, dose-response data were fit using GraphPad Prism's log(inhibitor) vs normalized response-variable slope parameters to determine EC50 values and 95% confidence intervals. For the zebrafish locomotive anti-seizure activity data, multiple comparisons were made using a one-way analysis of variance (ANOVA) with a Kruskal-Wallis Test, followed by the Dunn's Method to determine significant differences between all pairs or between control and experimental groups using the Dunn Method for Joint Ranking. Differences were considered statistically significant when p<0.05. Data from zebrafish experiments are represented as scatter dot plots of individual measurements, with means±standard deviation indicated by bars.

Data set [1] has as its system PTZ-induced seizure activity in zebrafish larvae. Put plainly: Zebrafish PTZ-induced seizure model. The settings on record: for minimal effective concentration / anti-seizure activity: 7 dpf larvae; for minimal effective concentration: 1 hr pre-treatment, 10 mM PTZ, read-out: Anti-seizure activity: lowest tested dose with significant difference vs PTZ-only group; for anti-seizure activity: PTZ. It is filed as in vivo. As to the method:
The zebrafish PTZ-induced seizure model was used to determine the most promising compounds' in vivo efficacy. Zebrafish larvae (7 dpf) were treated with the compound for 1 hr prior to inducing seizures with PTZ. As established by previous larval zebrafish anti-seizure studies (Rahn et al., 2014; Hansen et al., 2004; Baraban et al., 2005), total distance traveled by each fish after seizure induction was measured and used as a proxy for seizure activity. Following collection of locomotor data, observation of a startle response and visual inspection for abnormal morphology confirmed that alterations in swim activity were not caused by compound toxicity.
We induced seizures in 7 dpf zebrafish larvae by the addition of […] PTZ as originally developed by Baraban et al., 2005. In a 48-well plate, one 7-dpf zebrafish was added per well. Larvae were dosed with each compound at a sub-lethal dose 1 hr prior to PTZ treatment. Two control rows were included with each experiment—tank water only control and PTZ only. Seizures were induced by adding PTZ to wells to yield a final concentration of 10 mM. After 5 min, the plate was transferred to the Daniovision instrument (Noldus Information Technology) and the chamber light was turned on. After 2 min, MediaRecorder (Noldus) was used to record video for 15 min. A small number of videos were acquired at 25 frames per second, but the majority of data were acquired at 60 frames per second. […] Ethovision XT software (Noldus) was used to track the fish movement from the video images in order to calculate the total distance traveled over 15 min. All experimental comparisons were made between animals from the same clutch.
as §1

Data set [2] is described as follows: Clinical observations in dosed mice. It counts as in vivo. To be noted: for pigmented urine: efficacy studies, 5% DMSO:95% Neobee formulation; for clinical symptoms during the IV study: intravenous 5 mg/kg, CD-1 mice. As to the method:
PK studies on 3 and 25 were carried out in CD-1 mice. Three males were dosed via oral gavage needle for oral administration at 20 mg/kg (10 mL/kg) or via intravenous administration at 5 mg/kg (10 mL/kg). Blood samples were taken at time intervals between 5 min and 24 hr from each animal.
PO PK experiments were repeated for 25, with oral dosing at 20 mg/kg and 10 mL/kg of a suspension with 1% Tween 80:1% carboxymethylcellulose in water.
Table 2 provides a summary of efficacy studies in vivo in mice, and in rat brain slices, using the 5% DMSO:95% Neobee formulation.

Where [3] appears, read: Mus musculus, HT-22, 24 h, HT22 cells, 24 hr, 95% CI in parentheses.

As to `CC(C)CCNC1=CC(=O)c2ccccc2C1=O` [Compound 17, 2-(Isopentylamino)naphthalene-1,4-dione], the EC50 with HT22 cells (Mus musculus, HT-22, HT22 cells) is > 12000 nM. Further, the minimal effective concentration in data set [1] (Danio rerio) turned out to be 5 µM. Besides, the pigmented urine entry in data set [2] is reported as “Pigmented urine was not seen”.
With `CC(C)CCOC1=CC(=O)c2ccccc2C1=O` [Compound 25, 2-(Isopentyloxy)naphthalene-1,4-dione], the concentration giving a half-maximal response (EC50) in the data set on HT22 cells (HT22 cells, 24 hr, 95% CI in parentheses) was 23.9 nM; in the data set on HT22 cells (setting [3]), ~24 nM. Besides, the “anti-seizure activity” value in data set [1] is “decrease seizures in a zebrafish model of epilepsy in a dose-dependent manner”. In addition, the minimal effective concentration in data set [1] (Danio rerio) was ≤ 5 µM. Further, the inhibition in vivo at 2.5 µM in data set [1] (Danio rerio, 2.5 μM, read-out: reduction of PTZ-induced locomotor activity) turned out to be 45%. Further, in data set [2], the “clinical symptoms during the IV study” value is “no abnormal clinical symptoms”. For the same compound, in data set [2] (oral 20 mg/kg, suspension 1% Tween 80:1% carboxymethylcellulose in water), the “clinical symptoms after oral dosing” value was “No abnormal clinical symptoms”.
Consider `CCC#CCNC1=CC(=O)c2ccccc2C1=O` [Compound 3, 2-(Pent-2-yn-1-ylamino)naphthalene-1,4-dione], for which the EC50 in the data set on HT22 cells (setting [3]) was found to be 1010 nM. Moreover, the “anti-seizure activity” value in data set [1] is on record as “decrease seizures in a zebrafish model of epilepsy in a dose-dependent manner”. Moreover, the minimal effective concentration in data set [1] (Danio rerio) is ≤ 5 µM. In addition, the inhibition in vivo at 5 µM in data set [1] (Danio rerio, 5 μM, read-out: reduction of PTZ-induced locomotor activity) came to 62%. In addition, the inhibition in vivo at 10 µM in data set [1] (Danio rerio, 10 μM, read-out: reduction of PTZ-induced locomotor activity) was found to be 80%. In addition, the inhibition in vivo at 20 µM in data set [1] (Danio rerio, 20 μM, read-out: reduction of PTZ-induced locomotor activity) amounted to 91%. Besides, in data set [2], the pigmented urine entry was “showed pigmented urine” and the “clinical symptoms during the IV study” value is reported as “no abnormal clinical symptoms”.
